# Measured values published in PubChem BioAssay AID602264 (The Scripps Research Institute Molecular Screening Center, 2012).
# Active and inactive are the calls of the source. The rule behind the calls is not given here.
# Biological target: Mu-type opioid receptor (Homo sapiens) + Delta-type opioid receptor (Homo sapiens) (UniProt P35372+P41143)
# Assay: OPRM1-OPRD1 heterodimer agonist potency – cell-based, luminescence, counter-screen for MC4R biased agonist project, dose response (AID 602264)
# Conditions: cell-based OPRM1-OPRD1 heterodimerization
# Chain of Mu-type opioid receptor (Homo sapiens) + Delta-type opioid receptor (Homo sapiens) (P35372 whole entry, looked up): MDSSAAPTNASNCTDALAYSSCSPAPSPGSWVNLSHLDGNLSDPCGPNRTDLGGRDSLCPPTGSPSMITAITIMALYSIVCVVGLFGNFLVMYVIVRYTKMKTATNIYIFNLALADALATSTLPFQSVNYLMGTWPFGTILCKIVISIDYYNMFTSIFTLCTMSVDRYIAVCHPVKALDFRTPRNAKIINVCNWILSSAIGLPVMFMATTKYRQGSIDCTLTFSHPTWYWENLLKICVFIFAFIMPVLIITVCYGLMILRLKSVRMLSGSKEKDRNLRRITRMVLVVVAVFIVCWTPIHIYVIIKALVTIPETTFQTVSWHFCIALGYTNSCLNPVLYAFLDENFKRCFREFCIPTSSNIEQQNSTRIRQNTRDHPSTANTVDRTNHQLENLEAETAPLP
# Chain of Mu-type opioid receptor (Homo sapiens) + Delta-type opioid receptor (Homo sapiens) (P41143 whole entry, looked up): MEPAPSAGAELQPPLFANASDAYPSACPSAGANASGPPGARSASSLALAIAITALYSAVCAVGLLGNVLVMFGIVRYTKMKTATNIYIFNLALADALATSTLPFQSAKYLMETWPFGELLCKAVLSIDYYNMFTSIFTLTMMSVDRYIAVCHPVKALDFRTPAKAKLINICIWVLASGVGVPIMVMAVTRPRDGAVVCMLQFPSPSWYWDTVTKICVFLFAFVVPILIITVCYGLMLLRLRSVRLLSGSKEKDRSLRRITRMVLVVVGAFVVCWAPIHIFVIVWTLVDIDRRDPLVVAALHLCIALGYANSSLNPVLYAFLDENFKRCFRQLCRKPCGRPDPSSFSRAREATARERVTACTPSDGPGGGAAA
row,Compound,EC50
1,CN(C)CCOc1ccc(-c2c(-c3ccccc3)sc3ccccc23)cc1,> 92.5 µM (inactive)
2,Cc1cc(C)c2sc(N(CCCN(C)C)C(=O)COc3ccc(Cl)cc3)nc2c1,> 92.5 µM (inactive)
3,CCCOc1ccc(C(=O)C(CCC(CNCC)C(=O)c2ccc(OCCC)cc2)CNCC)cc1 (stereo not given),> 92.5 µM (inactive)
4,COc1ccc(NC(=O)Nc2nc(C(N)Cc3ccc(C(F)(F)F)cc3)cs2)cc1 (stereo not given),> 64.6 µM (inactive)
5,COc1ccccc1-c1cc(NC(C)=O)c2ncc(-c3cccc(C(F)(F)F)c3)n2c1,> 92.5 µM (inactive)
6,Cc1cccnc1C(NC(=O)C1CCN(CCOc2ccc(Cl)cc2Cl)CC1)c1ccc(Cl)cc1 (stereo not given),inactive

# Second part, the compound after the results:
row,EC50,Compound
1,> 92.5 µM (inactive),O=C(CSc1ccccc1)Nc1nnc(/C=C/c2ccccc2)s1
2,> 92.5 µM (inactive),COc1ccccc1NC(=O)Nc1nc(C(N)Cc2ccc(Cl)cc2)cs1 (stereo not given)
3,> 64.6 µM (inactive),COc1ccc(-c2cnc3c(NC(C)=O)cc(-c4ccccc4OC)cn23)cc1OC
4,> 64.6 µM (inactive),COc1cccc2sc(N(CCCN(C)C)C(=O)C(c3ccccc3)c3ccccc3)nc12
